Experimental data published in ChEMBL document CHEMBL1201862, “PubChem BioAssay data set” (2004).
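Values below derive from 48-hour exposures of cells grown in 96-well plates, with endpoints linearly interpolated between the two concentrations bracketing the appropriate inhibition level. GI50 marks 50% less growth.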 The source made the active and inactive calls. Cut-off read from the data, not from the text of the source: active = GI50 up to about 1.1 µM and inactive = higher.

Assays:
Assay in all cases: NCI-60 cell line screen, 48 h
[1] = system: OVCAR-3
[2] = system: SK-MEL-5
[3] = system: Malme-3M
[4] = system: LOX IMVI
[5] = system: UACC-62
[6] = system: PC-3
[7] = system: HOP-92
[8] = system: MDA-MB-435
[9] = system: RXF 393
[10] = system: ACHN
[11] = system: T47D
[12] = system: SF-268
[13] = system: RPMI-8226
[14] = system: UACC-257
[15] = system: SK-MEL-2
[16] = system: TK-10
[17] = system: SN12C
[18] = system: OVCAR-5
[19] = system: M14
[20] = system: HCT-116

Fc1ccc(C(OCCN2CC3CC2CN3)c2ccc(F)cc2)cc1 (stereo unspecified)
GI50 [1]: > 100 µM (inactive) | GI50 [2]: 16.4 µM (inactive) | GI50 [3]: 16.7 µM (inactive) | GI50 [4]: 50.9 µM (inactive) | GI50 [5]: 19.5 µM (inactive) | GI50 [6]: 59.2 µM (inactive) | GI50 [7]: 69.2 µM (inactive) | GI50 [8]: 23.1 µM (inactive) | GI50 [9]: 27.4 µM (inactive) | GI50 [10]: > 100 µM (inactive) | GI50 [11]: 35.2 µM (inactive) | GI50 [12]: > 100 µM (inactive) | GI50 [13]: 26.1 µM (inactive) | GI50 [14]: 18.3 µM (inactive) | GI50 [15]: 19.1 µM (inactive) | GI50 [16]: 32.8 µM (inactive)

Cc1cc(C)c(/C=C(\C(=C/c2c(C)cc(C)cc2C)[N+](=O)[O-])[N+](=O)[O-])c(C)c1
GI50 [1]: > 100 µM (inactive) | GI50 [2]: 86.5 µM (inactive) | GI50 [4]: 43.4 µM (inactive) | GI50 [5]: > 100 µM (inactive) | GI50 [6]: > 100 µM (inactive) | GI50 [7]: > 100 µM (inactive) | GI50 [8]: > 100 µM (inactive) | GI50 [17]: > 100 µM (inactive) | GI50 [9]: 20.6 µM (inactive) | GI50 [10]: > 100 µM (inactive) | GI50 [11]: 78.9 µM (inactive) | GI50 [18]: > 100 µM (inactive) | GI50 [13]: 1.31 µM (inactive) | GI50 [19]: > 100 µM (inactive) | GI50 [20]: > 100 µM (inactive) | GI50 [14]: > 100 µM (inactive) | GI50 [15]: > 100 µM (inactive) | GI50 [16]: > 100 µM (inactive)

CCOC(=O)c1c(N)sc2c1CC(C)CC2 (stereo unspecified)
GI50 [1]: 46.1 µM (inactive) | GI50 [2]: 19.2 µM (inactive) | GI50 [3]: 38 µM (inactive) | GI50 [4]: 42.2 µM (inactive) | GI50 [5]: 51.2 µM (inactive) | GI50 [6]: 29.4 µM (inactive) | GI50 [7]: 27.7 µM (inactive) | GI50 [8]: 41.2 µM (inactive) | GI50 [17]: 44.4 µM (inactive) | GI50 [9]: 18.6 µM (inactive) | GI50 [10]: 39.9 µM (inactive) | GI50 [11]: 32.5 µM (inactive) | GI50 [18]: 55.3 µM (inactive) | GI50 [12]: 45.1 µM (inactive) | GI50 [13]: 30 µM (inactive) | GI50 [19]: 26.8 µM (inactive) | GI50 [20]: 47.6 µM (inactive) | GI50 [14]: 31.2 µM (inactive) | GI50 [15]: 31.9 µM (inactive) | GI50 [16]: 45.6 µM (inactive)

Cc1c2ccccc2nc2[nH]c3ccncc3c12
GI50 [1]: 30.3 µM (inactive) | GI50 [2]: 29.4 µM (inactive) | GI50 [3]: 31 µM (inactive) | GI50 [4]: 20.6 µM (inactive) | GI50 [5]: 25.4 µM (inactive) | GI50 [6]: 38.3 µM (inactive) | GI50 [7]: 33 µM (inactive) | GI50 [8]: 33 µM (inactive) | GI50 [17]: 13.1 µM (inactive) | GI50 [10]: 18.7 µM (inactive) | GI50 [11]: 33.7 µM (inactive) | GI50 [18]: 35.3 µM (inactive) | GI50 [12]: 11.1 µM (inactive) | GI50 [13]: 21 µM (inactive) | GI50 [19]: 32.8 µM (inactive) | GI50 [14]: 52.1 µM (inactive) | GI50 [15]: 40.7 µM (inactive) | GI50 [16]: 19.3 µM (inactive)

O=C(/N=N/c1ccc(Br)cc1)NNc1ccc(Br)cc1
GI50 [1]: 16.8 µM (inactive) | GI50 [2]: 13.9 µM (inactive) | GI50 [3]: 26 µM (inactive) | GI50 [5]: 14.1 µM (inactive) | GI50 [6]: 15.5 µM (inactive) | GI50 [7]: 16.1 µM (inactive) | GI50 [8]: 19.8 µM (inactive) | GI50 [9]: 14.1 µM (inactive) | GI50 [11]: 29.8 µM (inactive) | GI50 [18]: 23.3 µM (inactive) | GI50 [13]: 23.8 µM (inactive) | GI50 [19]: 17.1 µM (inactive) | GI50 [20]: 17.5 µM (inactive) | GI50 [15]: 19.1 µM (inactive)

CS(=O)(=O)OCC(CCl)(CCl)CCl
GI50 [1]: > 100 µM (inactive) | GI50 [2]: > 100 µM (inactive) | GI50 [4]: > 100 µM (inactive) | GI50 [6]: > 100 µM (inactive) | GI50 [7]: > 100 µM (inactive) | GI50 [8]: > 100 µM (inactive) | GI50 [17]: > 100 µM (inactive) | GI50 [9]: > 100 µM (inactive) | GI50 [10]: > 100 µM (inactive) | GI50 [11]: > 100 µM (inactive) | GI50 [12]: > 100 µM (inactive) | GI50 [19]: > 100 µM (inactive) | GI50 [20]: > 100 µM (inactive) | GI50 [14]: > 100 µM (inactive) | GI50 [16]: > 100 µM (inactive)

CC1=C(C(=O)OCCO[N+](=O)[O-])C(c2ccccc2C(F)(F)F)C(C(=O)OC(C)C)=C(C)N1 (stereo unspecified)
GI50 [1]: 10.5 µM (inactive) | GI50 [2]: 10 µM (inactive) | GI50 [3]: 18.3 µM (inactive) | GI50 [4]: 13.9 µM (inactive) | GI50 [5]: 19.3 µM (inactive) | GI50 [6]: 3.36 µM (inactive) | GI50 [7]: 3.03 µM (inactive) | GI50 [8]: 16.6 µM (inactive) | GI50 [17]: 16.8 µM (inactive) | GI50 [9]: 10.3 µM (inactive) | GI50 [10]: 25.7 µM (inactive) | GI50 [11]: 19.8 µM (inactive) | GI50 [18]: 14.8 µM (inactive) | GI50 [12]: 16.3 µM (inactive) | GI50 [13]: 5.12 µM (inactive) | GI50 [19]: 13.1 µM (inactive) | GI50 [20]: 9.84 µM (inactive) | GI50 [14]: 11.2 µM (inactive) | GI50 [15]: 12.8 µM (inactive) | GI50 [16]: 18.1 µM (inactive)

COC(=O)C1(NC(=O)C(CC(=O)OCc2ccccc2)NC(=O)OCc2ccccc2)CCCCCCC1 (stereo unspecified)
GI50 [1]: 60.1 µM (inactive) | GI50 [2]: 13.8 µM (inactive) | GI50 [4]: 28.2 µM (inactive) | GI50 [5]: 24.3 µM (inactive) | GI50 [6]: 7.96 µM (inactive) | GI50 [7]: 42.9 µM (inactive) | GI50 [8]: 29.9 µM (inactive) | GI50 [17]: 36.6 µM (inactive) | GI50 [9]: 15.4 µM (inactive) | GI50 [10]: 34.4 µM (inactive) | GI50 [11]: 17.6 µM (inactive) | GI50 [18]: 62.7 µM (inactive) | GI50 [12]: 44.7 µM (inactive) | GI50 [13]: 5.56 µM (inactive) | GI50 [19]: 34.4 µM (inactive) | GI50 [20]: 27.9 µM (inactive) | GI50 [16]: 47.4 µM (inactive)

O=S(=O)(O)SCCNCCCCCC1CCCCC1
GI50 [1]: 5.87 µM (inactive) | GI50 [2]: 15.8 µM (inactive) | GI50 [3]: 18.8 µM (inactive) | GI50 [4]: 2.14 µM (inactive) | GI50 [5]: 1.88 µM (inactive) | GI50 [6]: 8.02 µM (inactive) | GI50 [7]: 20.8 µM (inactive) | GI50 [8]: 3.44 µM (inactive) | GI50 [17]: 6.12 µM (inactive) | GI50 [9]: 17.1 µM (inactive) | GI50 [10]: 16.1 µM (inactive) | GI50 [11]: 13.6 µM (inactive) | GI50 [18]: 9.64 µM (inactive) | GI50 [12]: 3.05 µM (inactive) | GI50 [13]: 17.1 µM (inactive) | GI50 [19]: 4.95 µM (inactive) | GI50 [20]: 5.05 µM (inactive) | GI50 [14]: 6.61 µM (inactive) | GI50 [15]: 2.87 µM (inactive) | GI50 [16]: 9.38 µM (inactive)

CC(C)c1cc2c(c(O)c1O)[C@@]1(C)CCCC(C)(C)C1=C(O)C2
GI50 [1]: 1.38 µM (inactive) | GI50 [2]: 1.03 µM (active) | GI50 [3]: 1.26 µM (inactive) | GI50 [4]: 1.21 µM (inactive) | GI50 [5]: 31.8 µM (inactive) | GI50 [6]: 1.19 µM (inactive) | GI50 [7]: 0.817 µM (active) | GI50 [8]: 1.23 µM (inactive) | GI50 [17]: 20.9 µM (inactive) | GI50 [9]: 0.964 µM (active) | GI50 [10]: 1.57 µM (inactive) | GI50 [11]: 2.04 µM (inactive) | GI50 [18]: 1.83 µM (inactive) | GI50 [12]: 1.5 µM (inactive) | GI50 [13]: 0.946 µM (active) | GI50 [19]: 2.36 µM (inactive) | GI50 [20]: 2.27 µM (inactive) | GI50 [14]: 1.13 µM (inactive) | GI50 [15]: 0.968 µM (active) | GI50 [16]: 1.91 µM (inactive)

O=c1c(C(c2ccc3ccccc3c2)c2c(O)oc3cc(O)ccc3c2=O)c(O)oc2cc(O)ccc12
GI50 [1]: 80 µM (inactive) | GI50 [2]: > 100 µM (inactive) | GI50 [4]: 32.7 µM (inactive) | GI50 [5]: > 100 µM (inactive) | GI50 [6]: > 100 µM (inactive) | GI50 [7]: 75 µM (inactive) | GI50 [8]: 46 µM (inactive) | GI50 [17]: > 100 µM (inactive) | GI50 [9]: 88.5 µM (inactive) | GI50 [11]: > 100 µM (inactive) | GI50 [18]: > 100 µM (inactive) | GI50 [12]: 15.9 µM (inactive) | GI50 [13]: 27.5 µM (inactive) | GI50 [19]: > 100 µM (inactive) | GI50 [20]: > 100 µM (inactive) | GI50 [14]: > 100 µM (inactive) | GI50 [15]: > 100 µM (inactive) | GI50 [16]: > 100 µM (inactive)
